Broadly, the IC50 is the midpoint of a concentration-inhibition curve.

The target of test [1] is T1, GSK3β (Homo sapiens, UniProt P49841). Description: biochemical.
Description: (§1) Reactions were terminated by the addition of 10 mM EDTA. Substrate and product were separated electrophoretically and fluorescence intensity of the substrate and product was determined by Labchip EZ Reader II (Caliper Life Sciences, MA). The kinase activity was measured as percent conversion. The reactions were performed in duplicate for each sample. […] The results were analyzed by Genedata Assay Analyzer. The percent inhibition was plotted against the compound concentration and the IC50 value was determined from the logistic dose-response curve fitting.
The target of test [2] is T2, GSK3α (Homo sapiens, UniProt P49840). The conditions noted are these: for IC50: read-out: Caliper Assay, GSK3α IC50.
Description: as §1
For test [3], the target named is T2, GSK3α. Description: biochemical.
Description: as §1
Test [4] has as its target T1, GSK3β.
Description: as §1
[5] abbreviates: Caliper assay, GSK3α over GSK3β.
Where [6] appears, read: Caliper assay, GSK3β over GSK3α.

Where two headings read alike, the source gives them in different places.

T2 sequence (P49840 whole entry): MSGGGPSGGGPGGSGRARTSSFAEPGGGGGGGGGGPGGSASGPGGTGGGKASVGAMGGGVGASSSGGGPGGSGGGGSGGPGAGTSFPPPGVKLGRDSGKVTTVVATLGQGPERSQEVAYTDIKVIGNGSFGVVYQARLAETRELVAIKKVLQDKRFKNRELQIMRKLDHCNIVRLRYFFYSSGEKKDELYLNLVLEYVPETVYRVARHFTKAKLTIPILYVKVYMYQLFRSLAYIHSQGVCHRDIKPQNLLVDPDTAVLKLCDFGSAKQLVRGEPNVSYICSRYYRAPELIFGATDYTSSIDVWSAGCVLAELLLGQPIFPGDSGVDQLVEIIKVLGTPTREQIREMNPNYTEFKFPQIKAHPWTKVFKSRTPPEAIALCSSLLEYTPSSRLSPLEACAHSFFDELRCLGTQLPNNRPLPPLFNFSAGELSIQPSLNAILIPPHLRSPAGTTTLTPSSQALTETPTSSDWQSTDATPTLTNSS
T1 sequence (P49841 whole entry): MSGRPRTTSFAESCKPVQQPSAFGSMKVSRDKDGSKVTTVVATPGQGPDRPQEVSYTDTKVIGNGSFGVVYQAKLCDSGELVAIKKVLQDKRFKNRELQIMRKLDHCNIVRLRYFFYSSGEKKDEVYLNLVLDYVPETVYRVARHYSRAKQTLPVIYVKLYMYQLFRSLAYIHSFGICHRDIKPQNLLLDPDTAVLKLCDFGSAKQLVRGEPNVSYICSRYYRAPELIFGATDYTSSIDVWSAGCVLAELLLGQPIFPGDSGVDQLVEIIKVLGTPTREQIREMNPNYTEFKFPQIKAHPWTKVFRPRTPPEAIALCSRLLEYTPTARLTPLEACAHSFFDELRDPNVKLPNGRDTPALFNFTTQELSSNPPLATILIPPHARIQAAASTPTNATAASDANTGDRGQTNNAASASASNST

Consider `CC1(C)CC(=O)C2=C(C1)Nc1n[nH]c(C(F)(F)F)c1C2c1cccc(OC(F)(F)F)c1` (stereo not drawn) [Compound 57], for which the IC50 on GSK3β [1] and on GSK3α [2] was less than 100 nM throughout.

For `CCC1(c2cccc(Cl)c2)C2=C(CC(C)(C)CC2=O)Nc2n[nH]cc21` (racemic) [Compound 218], the IC50 against GSK3β [1] was determined as 312 nM; at GSK3α [3], 54 nM. For the same compound, the GSK3α fold selectivity on GSK3α [2] (setting [5]) stood at 5.8 fold.

For `CC[C@@]1(c2cccc(Cl)c2)C2=C(CC(C)(C)CC2=O)Nc2n[nH]cc21` (stereo in doubt) [Compound 219], the half-maximal inhibitory concentration (IC50) against GSK3β [1] worked out at 79 nM; against GSK3α [3], 9 nM. Further, at GSK3α [2] (setting [5]), the GSK3α fold selectivity stood at 8.8 fold.

Take `CC1(C)CC(=O)C2=C(C1)Nc1n[nH]cc1[C@@]2(C)c1cccc(Cl)c1` (stereo in doubt) [Compound 205]: the IC50 at GSK3β [1] was determined as 33400 nM; on GSK3α [3] it was 4720 nM. The compound also displayed a GSK3α fold selectivity on GSK3α [2] (setting [5]) of 7.1 fold.

With `CC1(C)CC(=O)C2=C(C1)Nc1n[nH]cc1C2(C)c1cccc(F)c1` (racemic) [Compound 201], the half-inhibitory concentration (IC50) at GSK3β [1] was found to be 901 nM; against GSK3α [3], 239 nM. For the same compound, the GSK3α fold selectivity at GSK3α [2] (setting [5]) amounted to 3.8 fold.

As to `CC[C@]1(c2cc(Cl)cc(Cl)c2)C2=C(CC(C)(C)CC2=O)Nc2n[nH]cc21` (stereo in doubt) [Compound 222], the half-maximal inhibitory concentration (IC50) worked out at 11300 nM against GSK3β [1] and 1750 nM against GSK3α [3]. At GSK3α [2] (setting [5]), this compound gave a GSK3α fold selectivity of 6.4 fold.

On to `CC1(C)CC(=O)C2=C(C1)Nc1n[nH]c(C3CC3)c1C2(C)c1cccc(C(F)(F)F)c1` (stereo not drawn) [Compound 118], for which the GSK3α fold selectivity at GSK3α [2] was 1.1 fold.

`CC1(C)CC(=O)C2=C(C1)Nc1n[nH]c(C3CC3)c1C2(C)c1ccccc1F` (stereo not drawn) [Compound 116] showed a GSK3α fold selectivity on GSK3α [2] (GSK3α over GSK3β) of 1.1 fold.

Turning to `CC1(C)CC(=O)C2=C(C1)Nc1n[nH]cc1C2(C)c1cccc(C(F)(F)F)c1` (racemic) [Compound 206], the values for the 50% inhibitory concentration (IC50) at GSK3β [1] and at GSK3α [3] were 4 nM and 0.4 nM, respectively. Also, the GSK3α fold selectivity on GSK3α [2] (setting [5]) is listed as 10.0 fold.

Take `CCC1(c2ccccc2)C2=C(CC(C)(C)CC2=O)Nc2n[nH]c(C3CC3)c21` (racemic) [Compound 244]: the half-inhibitory concentration (IC50) was determined as 43 nM at GSK3β [1] and 23 nM at GSK3α [3]. Further, at GSK3α [2] (setting [5]), the GSK3α fold selectivity is on record as 1.9 fold.

For `CCC1(c2cccc(C(C)(C)C)c2)C2=C(CC(C)(C)CC2=O)Nc2n[nH]cc21` (racemic) [Compound 225], the IC50 is 86 nM against GSK3β [1] and 13 nM on GSK3α [3]. This compound showed a GSK3α fold selectivity on GSK3α [2] (setting [5]) of 6.6 fold.

Turning to `CC1(C)CC(=O)C2=C(C1)Nc1n[nH]c(F)c1C2(C)c1ccccc1` (stereo not drawn) [Compound 241], the 50% inhibitory concentration (IC50) at GSK3β [1] is 4210 nM; against GSK3α [3], 887 nM. On GSK3α [2] (setting [5]), this compound displayed a GSK3α fold selectivity of 4.7 fold.

Compound `CC1(C)CC(=O)C2=C(C1)Nc1n[nH]c(Cl)c1C2(C)c1ccccc1` (stereo not drawn) [Compound 110] gave a GSK3α fold selectivity at GSK3α [2] (GSK3α over GSK3β) of 1.8 fold.

On to `COC(=O)c1[nH]nc2c1C(C)(c1ccccc1)C1=C(CC(C)(C)CC1=O)N2` (stereo not drawn) [Compound 104], for which the GSK3α fold selectivity at GSK3α [2] (GSK3α over GSK3β) was found to be 1.5 fold.

On GSK3α [2] (GSK3α over GSK3β), `CC1(C)CC(=O)C2=C(C1)Nc1n[nH]c(Br)c1C2(C)c1ccccc1` (stereo not drawn) [Compound 111] registered a GSK3α fold selectivity of 3.1 fold.

As to `Cc1[nH]nc2c1[C@@](C)(c1cccc(C#N)c1)C1=C(CC(C)(C)CC1=O)N2` [Compound 97, 3-(1,6,6,9-tetramethyl-8-oxo-4,5,6,7,8,9-hexahydro-2H-pyrazolo[3,4-b]quinolin-9-yl)benzonitrile], the GSK3α fold selectivity at GSK3α [2] (GSK3α over GSK3β) was 5.9 fold.

For `CC1(C)CC(=O)C2=C(C1)Nc1n[nH]c(C3CC(F)(F)C3)c1C21CCc2cc(F)ccc21` (racemic) [Compound 264], the results for the IC50 at GSK3β [1] and at GSK3α [3] were 206 nM and 1490 nM, respectively. The compound also registered a GSK3β fold selectivity on GSK3β [4] of 7.2 fold.

On to `CC1(C)CC(=O)C2=C(C1)Nc1n[nH]c(C3CC(F)(F)C3)c1C21CCOc2ccccc21` (racemic) [Compound 268], for which the 50% inhibitory concentration (IC50) against GSK3β [1] came out at 78 nM; against GSK3α [3], 865 nM. Moreover, the GSK3β fold selectivity at GSK3β [4] came to 11.1 fold.

Take `CC1(C)CC(=O)C2=C(C1)Nc1n[nH]c(C3CC(F)(F)C3)c1[C@]21CCc2cc(F)ccc21` [Compound 266]: the IC50 at GSK3β [1] stood at 38 nM; on GSK3α [3] it was 342 nM. On GSK3β [4], this compound yielded a GSK3β fold selectivity of 9.0 fold.

As for `CC1(C)CC(=O)C2=C(C1)Nc1n[nH]c(C3CC(F)(F)C3)c1C2(C)c1cccc(C(F)(F)F)c1` (racemic) [Compound 247], the concentration for half-maximal inhibition (IC50) against GSK3β [1] stood at 328 nM; against GSK3α [3] it was 523 nM. Besides, the GSK3β fold selectivity at GSK3β [4] (setting [6]) is listed as 1.6 fold.

As to `Cc1[nH]nc2c1[C@@](c1ccccc1)(C(F)(F)F)C1=C(CC(C)(C)CC1=O)N2` [Compound 93, 1,6,6-trimethyl-9-phenyl-9-(trifluoromethyl)-5,6,7,9-tetrahydro-2H-pyrazolo[3,4-b]quinolin-8(4H)-one], at GSK3α [2], the half-maximal inhibitory concentration (IC50) was less than 100 nM.

As to `CCc1ccccc1[C@@H]1C2=C(CC(C)(C)CC2=O)Nc2n[nH]c(C(C)C)c21` [Compound 322], the IC50 on GSK3β [1] is 42 nM; against GSK3α [3], 462 nM. Moreover, the GSK3β fold selectivity at GSK3β [4] (setting [6]) is given as 11.0 fold.

As to `CC1(C)CC(=O)C2=C(C1)Nc1n[nH]c(C3CC(F)(F)C3)c1[C@@]21CCOc2ccccc21` [Compound 269], the values for the IC50 against GSK3β [1] and on GSK3α [3] were 18 nM and 164 nM, respectively. On GSK3β [4], the GSK3β fold selectivity was determined as 9.1 fold.

`COc1ccccc1[C@@H]1C2=C(CC(C)(C)CC2=O)Nc2n[nH]c(C3CC(F)(F)C3)c21` (stereo in doubt) [Compound 252]: the IC50 against GSK3β [1] was determined as 23 nM; on GSK3α [3], 191 nM. This compound came in with a GSK3β fold selectivity at GSK3β [4] (setting [6]) of 8.3 fold.

In the case of `CC1(C)CC(=O)C2=C(C1)Nc1n[nH]c(C3CC(F)(F)C3)c1C21CCc2c(F)cccc21` (racemic) [Compound 261], the IC50 at GSK3β [1] was 56 nM; against GSK3α [3] it was 426 nM. Further, the GSK3β fold selectivity at GSK3β [4] is on record as 7.6 fold.

Consider `CC(C)(C)Cc1[nH]nc2c1[C@@]1(CCOc3ccccc31)C1=C(CC(C)(C)CC1=O)N2` (stereo in doubt) [Compound 288], for which the IC50 is 18 nM against GSK3β [1] and 139 nM against GSK3α [3]. In addition, on GSK3β [4] (setting [6]), the GSK3β fold selectivity is given as 7.7 fold.

On to `CCC(C)(C)Cc1[nH]nc2c1[C@@](C)(c1ccccc1)C1=C(CC(C)(C)CC1=O)N2` (stereo in doubt) [Compound 292], for which the IC50 at GSK3β [1] amounted to 3020 nM; on GSK3α [3], 12000 nM. Also, the GSK3β fold selectivity at GSK3β [4] (setting [6]) worked out at 4.0 fold.

As for `CC(C)(C)Cc1[nH]nc2c1C(C)(c1ccc(F)cc1)C1=C(CC(C)(C)CC1=O)N2` (racemic) [Compound 275], the IC50 worked out at 215 nM against GSK3β [1] and 1430 nM against GSK3α [3]. Also, on GSK3β [4] (setting [6]), the GSK3β fold selectivity was 6.7 fold.

Consider `CC1(C)CC(=O)C2=C(C1)Nc1n[nH]c(C3CCCCC3)c1C2(C)c1ccccc1` (racemic) [Compound 303], for which the IC50 against GSK3β [1] was determined as 746 nM; against GSK3α [3], 1850 nM. In addition, at GSK3β [4] (setting [6]), the GSK3β fold selectivity is given as 2.5 fold.

Take `CC(C)(C)Cc1[nH]nc2c1[C@@](C)(c1ccc(F)cc1)C1=C(CC(C)(C)CC1=O)N2` (stereo in doubt) [Compound 277]: the results for the half-maximal inhibitory concentration (IC50) against GSK3β [1] and on GSK3α [3] were 949 nM and 2800 nM, respectively. At GSK3β [4] (setting [6]), this compound registered a GSK3β fold selectivity of 3.0 fold.

For `CC(C)c1[nH]nc2c1[C@](C)(c1ccccc1)C1=C(CC(C)(C)CC1=O)N2` (stereo in doubt) [Compound 297], the half-inhibitory concentration (IC50) against GSK3β [1] turned out to be 24 nM; on GSK3α [3], 56 nM. Further, the GSK3β fold selectivity on GSK3β [4] (setting [6]) was found to be 2.3 fold.

Consider `COc1ccccc1C1C2=C(CC(C)(C)CC2=O)Nc2n[nH]c(C3CC(F)(F)C3)c21` (racemic) [Compound 250], for which the half-maximal inhibitory concentration (IC50) at GSK3β [1] is 30 nM; at GSK3α [3], 392 nM. For the same compound, on GSK3β [4] (setting [6]), the GSK3β fold selectivity was determined as 13.1 fold.

Turning to `CC1(C)CC(=O)C2=C(C1)Nc1n[nH]c(C3CC(F)(F)C3)c1[C@@]2(C)c1cccc(C(F)(F)F)c1` (stereo in doubt) [Compound 249], the IC50 stood at 1550 nM on GSK3β [1] and 4790 nM at GSK3α [3]. On GSK3β [4] (setting [6]), this compound had a GSK3β fold selectivity of 3.1 fold.

With `COc1cc(F)ccc1[C@H]1C2=C(CC(C)(C)CC2=O)Nc2n[nH]c(C(C)C)c21` [Compound 323], the half-maximal inhibitory concentration (IC50) came to 20 nM against GSK3β [1] and 271 nM against GSK3α [3]. This compound also registered a GSK3β fold selectivity on GSK3β [4] (setting [6]) of 13.6 fold.

Regarding `CC1(C)CC(=O)C2=C(C1)Nc1n[nH]c(C3CC(F)(F)C3)c1[C@@]21COc2ccccc21` [Compound 256], the half-inhibitory concentration (IC50) against GSK3β [1] turned out to be 2 nM; on GSK3α [3], 13 nM. On GSK3β [4], this compound returned a GSK3β fold selectivity of 6.5 fold.

Take `COc1ccccc1[C@@]1(C)C2=C(CC(C)(C)CC2=O)Nc2n[nH]c(C3CC(F)(F)C3)c21` (stereo in doubt) [Compound 255]: the IC50 against GSK3β [1] turned out to be 13400 nM; against GSK3α [3] it was 28000 nM. Further, the GSK3β fold selectivity on GSK3β [4] (setting [6]) came out at 2.1 fold.

Regarding `Cc1[nH]nc2c1[C@](C)(c1ccccc1)C1=C(CC(C)(C)CC1=O)N2` [Compound 123], the IC50 against GSK3β [1] was less than 100 nM. This compound registered a GSK3α fold selectivity at GSK3α [2] (GSK3α over GSK3β) of 3.6 fold.

Compound `Cc1[nH]nc2c1C1(CCCC1)C1=C(CC(C)(C)CC1=O)N2` [Compound 102] yielded a GSK3α fold selectivity at GSK3α [2] (GSK3α over GSK3β) of 1.9 fold.

`CCC(C)(C)Cc1[nH]nc2c1C(C)(c1ccccc1)C1=C(CC(C)(C)CC1=O)N2` (racemic) [Compound 290]: the IC50 against GSK3β [1] is 44 nM; on GSK3α [3] it was 379 nM. Besides, the GSK3β fold selectivity on GSK3β [4] (setting [6]) is 8.6 fold.

Take `CC(C)c1[nH]nc2c1[C@](C)(c1ccccc1F)C1=C(CC(C)(C)CC1=O)N2` (stereo in doubt) [Compound 312]: the IC50 against GSK3β [1] came out at 66 nM; at GSK3α [3], 386 nM. At GSK3β [4] (setting [6]), this compound gave a GSK3β fold selectivity of 5.8 fold.

In the case of `CC1(C)CC(=O)C2=C(C1)Nc1n[nH]c(C3CC(F)(F)C3)c1[C@]21CCc2ccccc21` [Compound 260], the IC50 against GSK3β [1] is 53 nM; against GSK3α [3] it was 444 nM. The same compound showed a GSK3β fold selectivity on GSK3β [4] of 8.4 fold.
